Source: paper PMC12741935 (Alzheimer's & Dementia, 2025)

Tests used:
[1] = test system: 14 DIV mouse hippocampal neurons; test: oAβ-induced spine loss: drebrin-positive spine density in cultured hippocampal neurons; format: cell-based
Protocol: For in vitro study, all animal procedures were conducted in accordance with the National Institutes of Health Guide for the Care and Use of Laboratory Animals using protocols approved by the institutional animal care and use committee at Stanford University. Timed pregnant C57BL/6 mice (Strain code: 027) were purchased from Charles River Laboratories and delivered on embryonic day 15 (E15), after which E16 embryos were used for primary hippocampal cultures. Primary embryonic mouse hippocampal neuron cultures were plated on poly‐D‐lysine‐coated (10 µg/mL) glass cover slips at 40,000 to 50,000 cells per well in 12‐well plates (Corning Life Sciences). Cells were seeded in plating medium DMEM/F12 supplemented with 10% fetal bovine serum and 1 × penicillin/streptomycin (PS) for 2 hours. Medium was then changed to B‐27 Plus Neuronal Culture System (Invitrogen) supplemented with PS, and 2 mM glutamine.
Immunofluorescence was performed as described previously.[24] Briefly, cultured hippocampal neurons were fixed in 4% formaldehyde for 20 minutes, permeabilized for 6 minutes in 80% ice‐cold methanol, and incubated with primary antibodies at 4°C overnight. Primary antibodies used were rabbit polyclonal MAP2 antibody for labeling dendrites (1:1000, #8707, Cell Signaling) and mouse monoclonal drebrin antibody for labeling dendritic spines (1:300; Cat#ADI‐NBA‐110, Enzo). Secondary antibodies consisted of donkey antirabbit or antimouse conjugated with either FITC or Cy3 (1:400; Jackson ImmunoResearch Laboratories, Inc.).
The cultured hippocampal neurons were imaged using an oil‐based 63x objective on a Leica Stellaris 5 confocal microscope. The cell nucleus was stained with DAPI and imaged at a wavelength of 405 nm (blue channel), the dendrites stained by MAP2 were imaged at 488 nm wavelength (green channel), and the drebrin‐stained spines were imaged at a wavelength of 561 nm (red channel). Z‐stack images of neurons were acquired at a 1024 × 1024 resolution, a zoom factor of 1.0, and a z‐step size of 0.5 µm. The number of steps for every z‐stack picture of a neuron were determined by the size of the neuron in the z‐plane, to ensure that the entirety of a neuron is captured in the picture. The areas to be imaged were selected systematically, starting from the top‐left region to proceeding to the bottom‐right region of a coverslip. For imaging, preference was given to field of views containing isolated neurons versus clustered neurons.
For quantification of drebrin‐positive spines in vitro, the images were analyzed using Imaris 9.3 software. Each image consisted of one major neuron and the “filaments” option in Imaris was applied to manually trace along the dendrites of every neuron, by placing starting and seed points at the beginning and along the length of the dendrites, respectively. The largest dendrite diameter (i.e., Starting Point) was set at 9.00 µm threshold while the thinnest dendrite diameter (i.e., Seed Point) was set at 1.00 µm threshold. After manually tracing the dendrites, the spines along the dendrites were assessed using the automatic “spine detection” function in Imaris. […] The spine density (number of spines/dendrite length) was then calculated for each neuron. All image acquisition and quantification were performed in a blind manner. For in vitro quantification of dendrite degeneration, Neurolucida (MBF Biosciences) in the manual mode was used to measure the total dendritic length, numbers of dendrites, and dendritic complexity for each neuron.

[2] = test system: NfL, Aβ40, Aβ42; test: Plasma NfL and plasma/brain Aβ40, Aβ42 ELISA in chronically treated 5xFAD mice; format: in vivo; settings: chronic 100 mg/kg BID PO
Protocol: V-PLEX Aβ Peptide Panel 1 (4G8) Kit (Meso Scale Diagnostics, LLC #[…]) was used for Aβ40/Aβ42 detection and S-PLEX Neurofilament L Kit (Meso Scale Diagnostics, LLC # […]) was used for NfL analysis, according to the manufacturer's protocols. […] The supernatant recovered was the DEA soluble fraction containing the soluble Aβ isoforms. […] For ELISA, the DEA-soluble fraction was diluted at 10 times and 40 times and the insoluble fraction was diluted at 40 times and 300 times. The assay plates were read by MESO […] plate reader and analyzed using Discovery Workbench Software (MesoScale Discovery). All samples were run in duplicate and averaged for analysis. Brain concentrations of the soluble and insoluble Aβ were normalized to total protein. All samples from a single plasma collection timepoint were run together on the appropriate MSD plate with the kit provided calibration standards.

SMILES: CC(C)NC(=O)N1CC[C@H](NC2=Nc3cc(F)ccc3N(CC(F)F)c3ccc(Cl)cc32)C1 [NVS‐PAK1‐1, (S)‐3‐([2‐chloro‐5‐(2,2‐difluoroethyl)‐8‐fluoro‐5H‐dibenzo[b,e][1,4]diazepin‐11‐yl]amino)‐N‐isopropylpyrrolidine‐1‐carboxamide]
- EC50 ([1]; Mus musculus, Hippocampal neuron, 24 h, oAβ 1 µM, 24 h, 14 DIV neurons, read-out: EC50, concentration at which NVS-PAK1-1 reduced oAβ-induced loss of spine density by 50%): 2 nM
- drebrin-stained spine density (spine counts per µm of dendritic length) ([1]; oAβ 1 µM + inhibitor 24 h vs oAβ alone, NVS-PAK1-1 10 nM, NVS-PAK1-C 10 nM, AZ13705339 1 nM, G5555 5 nM): significantly higher spine counts
- brain amyloid accumulation, soluble (DEA) and insoluble (FA) fractions ([2]; 5xFAD): mirrored Aβ plasma values
- plasma NfL ([2]; young, aged, male, or female 5xFAD cohorts): did not significantly lower
